The Papp is the rate of passage across a membrane or cell layer, normalised by area and donor concentration. Read a high Papp as fast passage.

For the data set the following is noted: pampa; 60.0 min; 50.0 µM.
In turn, `OCCOCCN1CCN(C(c2ccccc2)c2ccc(Cl)cc2)CC1` (stereo not given) yielded a Papp of 114 ×10⁻⁶ cm/s.
`NNC(=O)c1ccncc1`: the Papp worked out at 3 ×10⁻⁶ cm/s.
Compound `COC(=O)c1ccccc1O[C@@H]1O[C@H](CO[C@@H]2OC[C@@H](O)[C@H](O)[C@H]2O)[C@@H](O)[C@H](O)[C@H]1O` returned a Papp of less than 1 ×10⁻⁶ cm/s.
To `COc1ccc2c(c[n+](C)c3c4cc5c(cc4ccc23)OCO5)c1OC` belongs 121 ×10⁻⁶ cm/s; to `CCOc1ccc(CCNC(=O)c2cc3ccccc3n2Cc2cccc(C)n2)cc1OCC`, 271 ×10⁻⁶ cm/s.
To `N#Cc1ccc(C(=O)Nc2ccc(Cl)c(-c3nc4ncccc4o3)c2)c(F)c1` belongs 160 ×10⁻⁶ cm/s; to `CC(C)(C)C(=O)OCOC(=O)C1N2C(=O)CC2S(=O)(=O)C1(C)C` (stereo not given), 37 ×10⁻⁶ cm/s.
To `Nc1ncnc2c1ncn2CCNCCCCCO` belongs less than 1 ×10⁻⁶ cm/s; to `C=CC1=C(C(=O)O)N2C(=O)[C@@H](NC(=O)/C(=N\O)c3csc(N)n3)[C@H]2SC1`, less than 1 ×10⁻⁶ cm/s.
`CNS(=O)(=O)Cc1ccc2[nH]cc(CCN(C)C)c2c1`: the Papp was less than 1 ×10⁻⁶ cm/s.
To `CC1(C)CC(=O)c2c(C(F)(F)F)nn(-c3ccc(C(N)=O)c(NC4CCC(O)CC4)c3)c2C1` (stereo not given) belongs 21.5 ×10⁻⁶ cm/s; to `COC(=O)C[C@@H](C(=O)OC)n1cnc2c(c(-c3ccccc3)cn2Cc2ccc(Br)cc2)c1=N`, less than 1 ×10⁻⁶ cm/s.
Next, `C/C(=C\c1csc(C)n1)[C@@H]1C[C@@H]2O[C@]2(C)CCC[C@H](C)[C@H](O)[C@@H](C)C(=O)C(C)(C)[C@@H](O)CC(=O)N1`: 1.7 ×10⁻⁶ cm/s; `O=C1C[C@@]2(C(=O)N1)C(=O)N(Cc1ccc(Br)cc1F)C(=O)c1cccn12`: 21 ×10⁻⁶ cm/s.
To `Cc1onc(-c2c(Cl)cccc2Cl)c1CC(=O)NCc1ccc(OCC(F)(F)F)nc1` belongs 204 ×10⁻⁶ cm/s; to `N=c1c2c(-c3ccccc3)cn(Cc3ccccc3)c2ncn1CCCCCO`, 89 ×10⁻⁶ cm/s; to `CO/N=C(\C(=O)N[C@@H]1C(=O)N2C(C(=O)O)=C(C[N+]3(C)CCCC3)CS[C@H]12)c1csc(N)n1`, less than 1 ×10⁻⁶ cm/s.
In turn, `CCCCC/C=C/C(=O)CCc1ccc(O)c(OC)c1` had an apparent permeability (Papp) of 187 ×10⁻⁶ cm/s.
To `O=C1/C(=C\c2ccccc2)C[C@@]2(O)[C@H]3Cc4ccc(O)c5c4[C@@]2(CCN3CC2CC2)[C@@H]1O5` belongs 158 ×10⁻⁶ cm/s; to `O=C(Nc1cnn2ccc(N3CCC[C@@H]3c3cc(F)ccc3F)nc12)N1CC[C@H](O)C1`, 3 ×10⁻⁶ cm/s.
Regarding `O=C(NCC1(N2CCN(c3ccccc3)CC2)CCOCC1)c1cccnc1Sc1ccccc1`, the Papp was determined as 207 ×10⁻⁶ cm/s.
Next, `O=C(Cc1cccs1)NC1C(=O)N2C(C(=O)[O-])=C(C[n+]3ccccc3)CSC12` (stereo not given): less than 1 ×10⁻⁶ cm/s; `CC(=O)N1CCN(C(=O)c2ccc(-c3ncc4cnc(-c5cccc(F)c5)cn34)cc2)CC1`: less than 1 ×10⁻⁶ cm/s.
To `OC[C@H]1O[C@@H](n2cnc3c(NCc4ccc(O)cc4)ncnc32)[C@H](O)[C@@H]1O` belongs less than 1 ×10⁻⁶ cm/s; to `CC[C@@]1(O)C(=O)OCc2c1cc1n(c2=O)Cc2cc3ccccc3nc2-1`, 23 ×10⁻⁶ cm/s.
In turn, `C=CC1=C(C(=O)O)N2C(=O)[C@@H](NC(=O)/C(=N\OCC(=O)O)c3csc(N)n3)[C@H]2SC1` returned a Papp of 2 ×10⁻⁶ cm/s.
On to `[O-][n+]1cccc(/C(Cl)=N/OC[C@@H](O)CN2CCCCC2)c1`, for which the Papp came out at 2 ×10⁻⁶ cm/s.
`O=C(Nc1cnc(Cl)nc1)c1ccc(F)c(F)c1` returned a Papp of 61 ×10⁻⁶ cm/s.
Next, `CC(=O)c1cc(C(=O)N[C@@H](C)Cn2ccc(-c3ccc(C#N)c(Cl)c3)n2)[nH]n1`: 164 ×10⁻⁶ cm/s; `Cc1oc(=O)oc1COC(=O)N1CC[C@@H](N2CC/C(=C\C3=C(C(=O)O)N4C(=O)[C@@H](NC(=O)/C(=N/O)c5nsc(N)n5)[C@H]4SC3)C2=O)C1`: 3 ×10⁻⁶ cm/s; `CN(C)CCn1cnc2c(c(-c3ccccc3)c(-c3ccccc3)n2CCc2ccccc2)c1=N`: 148 ×10⁻⁶ cm/s.
To `C=CC1=C(C(=O)O)N2C(=O)[C@@H](NC(=O)/C(=N/OCC(=O)O)c3csc(N)n3)[C@H]2SC1` belongs 4 ×10⁻⁶ cm/s.
To `O=C(O)C[C@H]1CCc2c1[nH]c1ccc(OCc3ccc(C4CCCC4)c(C(F)(F)F)c3)cc21` belongs 46 ×10⁻⁶ cm/s; to `N=c1c2c(-c3ccccc3)cn(Cc3ccccc3)c2ncn1CCO`, 113 ×10⁻⁶ cm/s.
Regarding `N#Cc1ccnc(Nc2cc(C3CCN(C4COC4)CC3)cc(N3CCC(F)(F)C3)n2)c1`, the Papp worked out at 133 ×10⁻⁶ cm/s.
To `COc1cc2nc(N3CCC(N4CCCCC4)CC3)nc(NC3CCCCCC3)c2cc1OC` belongs 116 ×10⁻⁶ cm/s; to `CCCC(C)(COC(N)=O)COC(=O)NC(C)C` (stereo not given), 11 ×10⁻⁶ cm/s.
To `CC(Cc1ccc2c(c1)OCO2)NCC(O)c1ccc(O)c(O)c1` (stereo not given) belongs 6 ×10⁻⁶ cm/s; to `O=C(NCC1CCOCC1)c1cnc(Nc2ccc(Cl)cc2Cl)nc1C(F)(F)F`, less than 1 ×10⁻⁶ cm/s.
To `COCCn1cnc2c(c(-c3ccccc3)c(-c3ccccc3)n2CCc2ccccc2)c1=N` belongs 116 ×10⁻⁶ cm/s.
`N=c1c2c(-c3ccccc3)cn(Cc3ccccc3)c2ncn1C(CO)(CO)CO` returned an apparent permeability (Papp) greater than 300 ×10⁻⁶ cm/s.
Next, `Oc1c(Cl)cc(Cl)cc1Sc1cc(Cl)cc(Cl)c1O`: 288 ×10⁻⁶ cm/s.
Next, `C=Cc1c(C)c2cc3nc(c(CC(=O)N[C@@H](CC(=O)O)C(=O)O)c4nc(cc5[nH]c(cc1[nH]2)c(C)c5CC)C(C)=C4C(=O)O)[C@@H](CCC(=O)O)[C@@H]3C`: less than 1 ×10⁻⁶ cm/s.
Next, `CN(C)CCN(C)C(=O)c1ccc(-c2ncc3cnc(-c4cccc(F)c4)cn23)cc1`: 90 ×10⁻⁶ cm/s; `Cn1nnnc1Sc1ncnc2scc(-c3ccc(C(=O)OC(C)(C)C)cc3)c12`: 72 ×10⁻⁶ cm/s; `Nc1ncnc2c1ncn2[C@@H]1O[C@H](CSCC[C@H](N)C(=O)O)[C@@H](O)[C@H]1O`: less than 1 ×10⁻⁶ cm/s.
As for `COc1cc(OC)c(OC)cc1CN1CCc2nc(N3CCN(c4ccccc4F)CC3)ncc2C1`, the Papp was greater than 300 ×10⁻⁶ cm/s.
Next, `Cc1ccc(-c2c(C(=O)CCl)n(CCCO)c3ncnc(N)c23)cc1`: 76 ×10⁻⁶ cm/s; `CCN1CCN(C(=O)c2ccc3c(c2)N(Cc2cc(C)ccc2C)C(=O)c2ccccc2S3(=O)=O)CC1`: 63 ×10⁻⁶ cm/s; `CC(C)CN(CC(=O)N(CCCN1CCCC1=O)CC(N)=O)C(=O)CNCCc1ccccc1F`: less than 1 ×10⁻⁶ cm/s.
To `Cc1ncc(COP(=O)(O)O)c(C=O)c1O` belongs less than 1 ×10⁻⁶ cm/s; to `c1ccc(Nc2nc3c(s2)CCCc2[nH]ncc2-3)nc1`, 194 ×10⁻⁶ cm/s.
To `Nc1ccc(/C=C/C(=O)NCc2cc3cc(-c4ccc(C(=O)N5CCC(F)(F)CC5)cc4)cc(-c4ccc(F)cc4)c3o2)cn1` belongs less than 1 ×10⁻⁶ cm/s.
Compound `CCC1=C[C@@H]2CN(C1)Cc1c([nH]c3ccccc13)[C@@](C(=O)OC)(c1cc3c(cc1OC)N(C)[C@H]1[C@@](O)(C(=O)OC)[C@H](OC(C)=O)[C@]4(CC)C=CCN5CC[C@]31[C@@H]54)C2` gave a Papp of 30 ×10⁻⁶ cm/s.
To `COC(=O)c1cccc(Cn2cnc3c(c(-c4ccccc4)c(-c4ccccc4)n3CCc3ccccc3)c2=N)c1` belongs 27 ×10⁻⁶ cm/s; to `CC1(C)S[C@@H]2[C@@H](N3C(=O)[C@@H](c4ccccc4)NC3(C)C)C(=O)N2[C@H]1C(=O)O`, greater than 300 ×10⁻⁶ cm/s; to `COCCn1cnc2c(c(-c3ccccc3)cn2Cc2ccccc2)c1=N`, 139 ×10⁻⁶ cm/s.
Compound `CC1(C)SCCN(S(=O)(=O)c2ccc(Oc3ccncc3)cc2)[C@H]1C(=O)NO` gave a Papp of 9 ×10⁻⁶ cm/s.
Next, `Cc1ccccc1N(C)C1CN([S+](=O)([O-])c2cccc(C(F)(F)F)c2)C1`: greater than 300 ×10⁻⁶ cm/s; `O=C(O)C1CN(Cc2ccc(-c3nc4cc(Cc5ccccc5F)ccc4s3)c(F)c2)C1`: greater than 300 ×10⁻⁶ cm/s.

The values are drawn from PubChem BioAssay AID1845228.
